# PMC6527222 (PLoS ONE, 2019)
# How the values were obtained:
# [1] = tested on: JB6 P+ cells; experiment: Anchorage-independent growth assay in soft agar (EGF-induced JB6 P+ colony formation); assay type: cell-based, mouse
# Protocol: Ten ng/mL EGF was used to promote the anchorage-independent growth of JB6 cells. […] Plates were incubated at 37°C, 5% CO2 for 14 days. Colonies with greater than ten cells were counted manually under a microscope. […] Normalization allowed for comparison of data over a range of JB6 P+ cell cultures, passages, and experimental time for the shRNA studies, as well as control for variation in the EGF response, and importantly allowed for a direct comparison to all concentration-response experiments including the toxicity assays. […] All group sizes were determined via previous studies to provide statistically meaningful data. In the soft agar assays, key results were repeated with different JB6 P+ cells to confirm the results. Similarly, the shRNA studies were conducted with three independent concentration-response curves with different JB6 P+ cell stocks. […] For two sample comparisons a t-test was utilized, and when comparing multiple samples a One-, Two-, or Three-Factor ANOVA followed by Tukey-Kramer post hoc test was utilized depending on the data. For all tests, statistical difference was donated when p < 0.05. […] The I[…]*PSD is expressed in x-axis units (log [M]) as is an IC50 and it represents the first concentration where it is expected to observe a statistical decrease in the measured signal. […] Using the formula provided by GraphPad Prism or a straight line for the point-to-point graphs, the X-axis value for point Y was determined. The error is ascribed to this measurement via adding and subtracting the pooled standard deviation (PSD) to/from point Y generating point Y ± PSD. The two new points were then transformed to the X-axis units as was done for point Y creating an asymmetric error in sigmoidal plots. When the error was asymmetric, the larger error value was chosen to err on the conservative side. See S1 Fig for a pictoral explination of the method. The data is presented as I[…]*PSD ± error.
# [2] = tested on: JB6 P+ cells; experiment: SRB cytotoxicity assay; assay type: cell-based, mouse; settings: 72 hr; NT = no toxicity at any concentration tested
# Protocol: 96-well plates were seeded with 3x10^3 JB6 P+ cells per well and allowed to attach overnight. […] Cell viability was determined using Sulforhodamine B (SRB) assay from Sigma-Aldrich according to the manufacturer’s protocol. Cellular protein content was measured using a Bio-Tek μQuant plate reader with KCJunior software.
# Concentration-response curves were normalized so that the EGF positive control on each 96-well plate was set to 100% and the control wells on each plate were set to 0%. Toxicity assays (SRB and MTS) were normalized so that the control on each plate represented 100% viability. Normalization allowed for comparison of data over a range of JB6 P+ cell cultures, passages, and experimental time for the shRNA studies, as well as control for variation in the EGF response, and importantly allowed for a direct comparison to all concentration-response experiments including the toxicity assays. […] All group sizes were determined via previous studies to provide statistically meaningful data. In the soft agar assays, key results were repeated with different JB6 P+ cells to confirm the results. Similarly, the shRNA studies were conducted with three independent concentration-response curves with different JB6 P+ cell stocks. […] For two sample comparisons a t-test was utilized, and when comparing multiple samples a One-, Two-, or Three-Factor ANOVA followed by Tukey-Kramer post hoc test was utilized depending on the data. For all tests, statistical difference was donated when p < 0.05.
# The IΔ2*PSD is expressed in x-axis units (log [M]) as is an IC50 and it represents the first concentration where it is expected to observe a statistical decrease in the measured signal.
# Using the formula provided by GraphPad Prism or a straight line for the point-to-point graphs, the X-axis value for point Y was determined. The error is ascribed to this measurement via adding and subtracting the pooled standard deviation (PSD) to/from point Y generating point Y ± PSD. The two new points were then transformed to the X-axis units as was done for point Y creating an asymmetric error in sigmoidal plots. When the error was asymmetric, the larger error value was chosen to err on the conservative side. See S1 Fig for a pictoral explination of the method. The data is presented as IΔ2*PSD ± error.
# [3] = tested on: JB6 P+ cells; experiment: Soft agar assay with competitive adrenergic receptor antagonists; assay type: cell-based; settings: Mus musculus, alone, CGP 12177 experiment (S2 Fig)
# Protocol: Ten ng/mL EGF was used to promote the anchorage-independent growth of JB6 cells. […] Plates were incubated at 37°C, 5% CO2 for 14 days. Colonies with greater than ten cells were counted manually under a microscope. Antagonists identified in our assays as ineffective at blocking EGF-mediated transformation of JB6 P+ cells yet displaying no or little toxicity were used as competitive antagonists towards carvedilol-mediated prevention of EGF-induced transformation of JB6 P+ cells.
# [4] = target: β2-AR; settings: given as negative log value; cited from earlier work
# [5] = tested on: β2-AR; parameters: method as in as printed in each cell (43-46, 48-54, 56-58); settings: as described in the references; ref (43-46, 48-54, 56-58); cited from earlier work
structure (smiles),measurement,setting,value
OC(CNCC(O)C1CCc2cc(F)ccc2O1)C1CCc2cc(F)ccc2O1 (stereo not drawn) [Nebivolol],IC50,"[1]; 10 ng/mL EGF, soft agar, read-out: IC50, inhibition of EGF-mediated transformation",≤ 1000 nM
same,IC50,"[1]; Mus musculus, 10 ng/mL EGF, soft agar, read-out: IC50, inhibition of EGF-mediated transformation",1090 nM
same,IC50,"[1]; Mus musculus, 336 h, 10 ng/mL EGF, 14 days, negative log value, read-out: Soft Agar Assay Log IC50 (converted)",1100 nM
same,minimal effective concentration,"[1]; Mus musculus, 336 h, 10 ng/mL EGF, 14 days, first concentration with expected statistical decrease, read-out: Soft Agar Assay Log IΔ2*PSD (converted)",0.479 µM
same,Emax,"[1]; Mus musculus, efficacy of inhibition of colony formation, reported if non-toxic",96.5 ± 7.24%
same,SRB Assay Log IΔ2*PSD,[2],-4.65 ± 0.19 log [M]
same,IC50,[3],347 nM
same,Log Kd at β2-AR,[4],-7.91 ± 0.07 [47]
same,Pharmacological property at β2-AR,[5],Biased agonist/ activates ERK [46]
